According to patent US20220331301A1, “CYSTIC FIBROSIS TRANSMEMBRANE CONDUCTANCE REGULATOR MODULATORS FOR TREATING AUTOSOMAL RESESSIVE POLYCYSTIC KIDNEY DISEASE” (The Johns Hopkins University, priority 2021, published 2022):

Test system: Pkhd1^del4/del4 cholangiocytes
Assay: Cyst growth of cholangiocytes on matrigel (3D culture)
Format: cell-based, mice
Conditions: for cyst growth / cyst area: 10 μM continuous, cysts induced with Forskolin (10 μM)
Experimental: (§1) Note that the cysts treated with forskolin (for) grew larger. […] Note that the cysts treated with forskolin (for) grew larger. […] FIG. 3C for 1 wk. […] Cysts were induced with Forskolin (10 μM) for 24 hours prior to study. Columns represent means±standard error (SEM). **P<0.01 ****P<0.0001 (for all graphs). Statistical analysis was performed using an unpaired two-tailed Student's t-test;
as §1, with “4C” for “3C”
But cysts do develop from the Pkhd1del4/del4 cholangiocytes. Cyst growth is accelerated by forskolin (for). […] Yanda et al., 2018. The dosage of VX-809 injected was lower than the human pediatric dose, which is 500 mg of Lumacaftor per day; the adult dose is 800 mg/day.
(Methods and cells provided by the Yale O'Brian Center) To create the cholangiocyte cultures PKhd1del/4/del4, Garcia-Gonzalez et al., 2007, animals were crossed with mice transgenic for the Sv40 large T Antigen (strain name SV40 T-antigen JAX strain #002233). Segments of intrahepatic bile ducts were microdissected from livers perfused via the portal vein with molten agarose containing toluidine blue to mark the veins. The liver parenchyma was stripped until the biliary tree was identified and the bile duct units were seeded onto rat type I collagen coated plates. Cells were cultured under non-permissive conditions in the following medium: DMEM/F12 with 5% fetal bovine serum, 10 μL/mL insulin-transferrin selenium, 3.4 μg/mL triiodothyronine, 50,000 U penicillin/streptomycin under humidified conditions at 37° C. in 5% CO2. After one week, the cells were cultured under permissive conditions in the presence of 10 U of interferon-γ at 33° C. in 5% CO2. When confluent, cells were passaged by digesting the collagen slab below the cells (60 min; 37° C.; DMEM/F12 with 2 mg/mL dispase and 1 mg/mL collagenase type 11), then washed twice in PBS and plated onto collagen coated support systems. Clonal cell lines were generated by single cell isolation. Cells were differentiated for 10 days at 37° C. without interferon-γ for experimental use.

CCOc1ccc2c(-c3cccc(F)c3)nn(CC(=O)N(C)c3ccc4nc(C)oc4c3)c(=O)c2c1 [FDL 169]
cyst growth in 3D culture (Pkhd1del4/del4 cholangiocytes, time not stated): reduces growth | cyst growth / cyst area (monitored for 1 week): reduced cyst growth in the presence of forskolin | cyst growth / cyst area (monitored for 48 hrs): reduced cyst growth in the presence of forskolin
